Values after ≈ are worked out from the molar mass of the structure shown.
Columns and labels:
[1] = test system: S. aureus ATCC 13709; assay: MIC, S. aureus ATCC 13709 (Alamar Blue broth microdilution); format: cell-based; settings: Alamar Blue read after overnight incubation at 35° C.; for MIC: Staphylococcus aureus, ATCC13709, S. aureus; for MIC Sa: S. aureus
[2] = test system: E. coli ATCC 25922; assay: MIC, E. coli ATCC 25922; format: cell-based; settings: Alamar Blue read after overnight incubation at 35° C.; for MIC: Escherichia coli, ATCC25922, E. coli; for MIC Ec: E. coli

Compound	MIC [1] [µg/mL]	MIC [2] [µg/mL]	MIC Sa [1] [µg/mL]	MIC Ec [2] [µg/mL]
CNc1cccc2c1[nH]c1nc(Oc3cncc(C#N)c3)nc(N3CCC4(CC4N)C3)c12 (centres unmarked) [3.40]	≤ 0.5	1 (≈ 2.34 µM)		
CNc1cccc2c1[nH]c1nc(Oc3cncnc3)nc(N3CCC4(CC4N)C3)c12 (centres unmarked) [3.41]	≤ 0.5	≤ 0.5		
CNc1cccc2c1[nH]c1nc(Oc3cnc(C)nc3)nc(N3CCC4(CC4N)C3)c12 (centres unmarked) [3.42]	≤ 0.5	2 (≈ 4.8 µM)		
CNc1cccc2c1[nH]c1nc(Oc3cncc(C#N)c3)nc(N3CC(N)C4(CC4)C3)c12 (centres unmarked) [3.43]	≤ 0.5	1 (≈ 2.34 µM)		
CNc1cccc2c1[nH]c1nc(Oc3cncc(C#N)c3)nc(N3C[C@@H](N)C4(CC4)C3)c12 [3.44]	8 (≈ 18.8 µM)	16 (≈ 37.5 µM)		
CNc1cccc2c1[nH]c1nc(Oc3cncnc3)nc(N3CC(N)C4(CC4)C3)c12 (centres unmarked) [3.45]	≤ 0.5	≤ 0.5		
CNc1cccc2c1[nH]c1nc(Oc3cncnc3)nc(N3C[C@@H](N)C4(CC4)C3)c12 [3.46]	2 (≈ 4.97 µM)	4 (≈ 9.94 µM)		
CNc1cccc2c1[nH]c1nc(Oc3cncnc3)nc(N3C[C@H](N)C4(CC4)C3)c12 [3.47]	≤ 0.5	≤ 0.5		
CNc1cccc2c1[nH]c1nc(Oc3cnc(C)nc3)nc(N3C[C@@H](N)C4(CC4)C3)c12 [3.48]	2 (≈ 4.8 µM)	8 (≈ 19.2 µM)		
CNc1cccc2c1[nH]c1nc(Oc3cnc(C)nc3)nc(N3C[C@H](N)C4(CC4)C3)c12 [3.49]	≤ 0.5	≤ 0.5		
CNc1cccc2c1[nH]c1nc(Oc3cncc(F)c3)nc(N3CC(N)C4(CC4)C3)c12 (centres unmarked) [3.50]	≤ 0.5	2 (≈ 4.77 µM)		
CNc1cccc2c1[nH]c1nc(Oc3cncc(F)c3)nc(N3C[C@@H](N)C4(CC4)C3)c12 [3.51]	8 (≈ 19.1 µM)	32 (≈ 76.3 µM)		
CNc1cccc2c1[nH]c1nc(Oc3cnc4cccnc4c3)nc(N3CC(N)C4(CC4)C3)c12 (centres unmarked) [3.52]	≤ 0.5	≤ 0.5		
CNc1cccc2c1[nH]c1nc(Oc3cnc(N)nc3)nc(Oc3cnc(N)nc3)c12 [3.53]	8 (≈ 19.2 µM)	> 64		
CNc1cccc2c1[nH]c1nc(Oc3cncnc3)nc(N3CCN(Cc4ccccn4)CC3)c12 [3.54]	8 (≈ 17.1 µM)	> 32		
CNc1cccc2c1[nH]c1nc(Oc3cncc(C#N)c3)nc(N3CCN(CCN)CC3)c12 [3.55]	64 (≈ 144 µM)	> 64		
CNc1cccc2c1[nH]c1nc(Oc3cncnc3)nc(N3CCN(CCN)CC3)c12 [3.56]	> 64	> 64		
CNc1cccc2c1[nH]c1nc(Oc3cncc(C#N)c3)nc(N3CCC(CN)C3)c12 (centres unmarked) [3.57]	1 (≈ 2.41 µM)	8 (≈ 19.3 µM)		
CNc1cccc2c1[nH]c1nc(Oc3cncnc3)nc(N3CCC(CN)C3)c12 (centres unmarked) [3.58]	32 (≈ 82 µM)	> 64		
CNc1cccc2c1[nH]c1nc(Oc3cncc(C#N)c3)nc(N3CCN(CCN4CCOCC4)CC3)c12 [3.59]	4 (≈ 7.79 µM)	> 64		

Compound	MIC [1] [µg/mL]	MIC [2] [µg/mL]	MIC Sa [1] [µg/mL]	MIC Ec [2] [µg/mL]
CNc1cccc2c1[nH]c1nc(Oc3cncnc3)nc(N3CCN(CCN4CCOCC4)CC3)c12 [3.60]	8 (≈ 16.3 µM)	> 64		
CNc1cccc2c1[nH]c1nc(Oc3cncnc3)nc(N3C[C@@H]4CNC[C@H]4C3)c12 [3.61]	4 (≈ 9.94 µM)	16 (≈ 39.8 µM)		
CNc1cccc2c1[nH]c1nc(Oc3cncnc3)nc(N3C/C(=N\OC)[C@@H](N)C3)c12 [3.62]	≤ 0.5	8 (≈ 19.1 µM)		
CNc1cccc2c1[nH]c1nc(Oc3cncnc3)nc(N3CC(F)[C@@H](N)C3)c12 (some centres unmarked) [3.63]	≤ 0.5	8 (≈ 20.3 µM)		
CNc1cccc2c1[nH]c1nc(Oc3cncnc3)nc(N3CCC(N)CC3)c12 [3.64]	16 (≈ 41 µM)	64 (≈ 164 µM)		
CNc1cccc2c1[nH]c1nc(Oc3cncnc3)nc(N3CCC4(CNC4)C3)c12 [3.65]	8 (≈ 19.9 µM)	64 (≈ 159 µM)		
CNc1cccc2c1[nH]c1nc(Oc3cncc(F)c3)nc(N3CCC4(CNC4)C3)c12 [3.66]	8 (≈ 19.1 µM)	> 32		
CNc1cccc2c1[nH]c1nc(Oc3cncnc3)nc(N3CC4(CCNC4)C3)c12 [3.67]	16 (≈ 39.8 µM)	64 (≈ 159 µM)		
CNc1cc(F)cc2c1[nH]c1nc(Oc3cncnc3)nc(N3CC4C(N)C4C3)c12 (centres unmarked) [4.001]			≤0.5	≤0.5
CNc1cc(F)cc2c1[nH]c1nc(Oc3cncnc3)nc(N3CC(N)C4(CC4)C3)c12 (centres unmarked) [4.002]	≤ 0.5	≤ 0.5		
CNc1cc(F)cc2c1[nH]c1nc(Oc3cncnc3)nc(N3CCC4(CC4N)C3)c12 (centres unmarked) [4.003]	≤ 0.5	≤ 0.5		
CNc1cc(F)cc2c1[nH]c1nc(Oc3cncnc3)nc(N3CC4C(CN)C4C3)c12 (centres unmarked) [4.004]	≤ 0.5	2 (≈ 4.76 µM)		
CNc1cc(F)cc2c1[nH]c1nc(Oc3cncnc3)nc(N3CC4CC4(N)C3)c12 (centres unmarked) [4.005]	≤ 0.5	≤ 0.5		
CNc1cc(F)cc2c1[nH]c1nc(Oc3cncnc3)nc(N3C[C@@H](N)C4(CC4)C3)c12 [4.006]	≤ 0.5	1 (≈ 2.38 µM)		
CNc1cc(F)cc2c1[nH]c1nc(Oc3cncnc3)nc(N3CCC(N)C3)c12 (centres unmarked) [4.007]			≤0.5	≤0.5
CNc1cc(F)cc2c1[nH]c1nc(Oc3cncnc3)nc(N3CC4CNC4C3)c12 (centres unmarked) [4.008]	≤ 0.5	≤ 0.5		
CNc1cc(F)cc2c1[nH]c1nc(Oc3cncnc3)nc(N3C[C@@H]4[C@H](C3)[C@@]4(N)C(N)=O)c12 [4.009]	≤ 0.5	> 64		
CNc1cc(F)cc2c1[nH]c1nc(Oc3cncnc3)nc(N3CC4C(N)C4C3)c12 (centres unmarked) [4.010]			≤0.5	≤0.5
CNc1cc(F)cc2c1[nH]c1nc(Oc3cncnc3)nc(N3C[C@H](N)C4(CC4)C3)c12 [4.011]	≤ 0.5	≤ 0.5		
CNc1cc(F)cc2c1[nH]c1nc(Oc3cncnc3)nc(N3CC[C@]4(C[C@@H]4N)C3)c12 [4.013]	≤ 0.5	≤ 0.5		

Compound	MIC [1] [µg/mL]	MIC [2] [µg/mL]	MIC Sa [1] [µg/mL]	MIC Ec [2] [µg/mL]
CNc1cc(F)cc2c1[nH]c1nc(Oc3cncnc3)nc(N3CC[C@@]4(C[C@H]4N)C3)c12 [4.014]	≤ 0.5	1 (≈ 2.38 µM)		
CNc1cc(F)cc2c1[nH]c1nc(Oc3cncnc3)nc(N3CC4CNC(C4)C3)c12 (centres unmarked) [4.015]	≤ 0.5	1 (≈ 2.38 µM)		
CNc1cc(F)cc2c1[nH]c1nc(Oc3cncnc3)nc(N3CC4CCC(N)C4C3)c12 (centres unmarked) [4.016]	≤ 0.5	1 (≈ 2.3 µM)		
CNc1cc(F)cc2c1[nH]c1nc(Oc3cncnc3)nc(N3CCC(C4(N)CC4)C3)c12 (centres unmarked) [4.017]	≤ 0.5	≤ 0.5		
CNc1cc(F)cc2c1[nH]c1nc(Oc3cncnc3)nc(N3CCC4CNC4C3)c12 (centres unmarked) [4.018]	≤ 0.5	≤ 0.5		
CNc1cc(F)cc2c1[nH]c1nc(Oc3cncnc3)nc(N3C4CCC3C(N)C4)c12 (centres unmarked) [4.019]	2 (≈ 4.76 µM)	16 (≈ 38.1 µM)		
CNc1cc(F)cc2c1[nH]c1nc(Oc3cncnc3)nc(N3C[C@H]4CCN[C@H]4C3)c12 [4.020]	≤ 0.5	≤ 0.5		
CNc1cc(F)cc2c1[nH]c1nc(Oc3cncnc3)nc(N3C[C@H]4CC[C@@H](CN)[C@H]4C3)c12 [4.021]	≤ 0.5	2 (≈ 4.46 µM)		
CNc1cc(F)cc2c1[nH]c1nc(Oc3cncnc3)nc(N3CC4C[C@@H]3CN4)c12 [4.022]	8 (≈ 19.7 µM)	16 (≈ 39.4 µM)		
CNc1cc(F)cc2c1[nH]c1nc(Oc3cncnc3)nc(N3CC(C)C(CN)C3)c12 (centres unmarked) [4.023]			≤0.5	1 (≈ 2.37 µM)
CNc1cc(F)cc2c1[nH]c1nc(Oc3cncnc3)nc(N3CCCC(C)(N)C3)c12 (centres unmarked) [4.024]	≤ 0.5	2 (≈ 4.73 µM)		
CNc1cc(F)cc2c1[nH]c1nc(Oc3cncnc3)nc(N3C4CCC3CC(N)C4)c12 (centres unmarked) [4.025]	≤ 0.5	2 (≈ 4.6 µM)		
CNc1cc(F)cc2c1[nH]c1nc(Oc3cncnc3)nc(N3CC4CC(N)C4C3)c12 (centres unmarked) [4.026]	≤ 0.5	≤ 0.5		
CNc1cc(F)cc2c1[nH]c1nc(Oc3cncnc3)nc(N3CC4CC4(CN)C3)c12 (centres unmarked) [4.027]	≤ 0.5	1 (≈ 2.38 µM)		
CNc1cc(F)cc2c1[nH]c1nc(Oc3cncnc3)nc(N3CC4C[C@@H](N)C4C3)c12 (some centres unmarked) [4.028]	≤ 0.5	≤ 0.5		
CNc1cc(F)cc2c1[nH]c1nc(Oc3cncnc3)nc(N3C[C@H](N)C[C@H]3C)c12 [4.029]	4 (≈ 9.79 µM)	16 (≈ 39.2 µM)		
CNc1cc(F)cc2c1[nH]c1nc(Oc3cncnc3)nc(N3CC4CC3C4CN)c12 (centres unmarked) [4.030]			2 (≈ 4.76 µM)	16 (≈ 38.1 µM)
CNc1cc(F)cc2c1[nH]c1nc(Oc3cncnc3)ncc12 [4.031]	2 (≈ 6.45 µM)	> 16		
